Data from paper PMC3403540, “Active Hydrophilic Components of the Medicinal Herb Salvia miltiorrhiza (Danshen) Potently Inhibit Organic Anion Transporters 1 (Slc22a6) and 3 (Slc22a8)” (Evidence-based Complementary and Alternative Medicine : eCAM, 2012).

Target: T1, mOat1 (Mus musculus, UniProt Q8VC69)
T1 construct: expressed in transfected cells; host or cells: CHO (Chinese hamster ovary), stably transfected (CHO-mOat1)
T1 sequence (Q8VC69 1-545): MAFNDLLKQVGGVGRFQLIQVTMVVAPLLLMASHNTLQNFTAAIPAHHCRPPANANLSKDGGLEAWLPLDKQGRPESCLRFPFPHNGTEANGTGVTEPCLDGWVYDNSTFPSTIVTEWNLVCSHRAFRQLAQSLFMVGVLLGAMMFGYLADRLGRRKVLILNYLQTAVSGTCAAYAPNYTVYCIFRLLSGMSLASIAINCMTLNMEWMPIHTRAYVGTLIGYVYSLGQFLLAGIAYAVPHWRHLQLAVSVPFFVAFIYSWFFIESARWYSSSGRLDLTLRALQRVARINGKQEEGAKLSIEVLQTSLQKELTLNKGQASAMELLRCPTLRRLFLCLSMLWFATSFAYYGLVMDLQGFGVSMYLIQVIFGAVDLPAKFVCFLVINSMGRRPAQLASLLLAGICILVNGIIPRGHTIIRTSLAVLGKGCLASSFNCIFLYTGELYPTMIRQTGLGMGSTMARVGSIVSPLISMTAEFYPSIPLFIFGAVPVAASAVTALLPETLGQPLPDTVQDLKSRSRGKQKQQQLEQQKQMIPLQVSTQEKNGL
Test: Inhibition of mOat1-mediated [3H]PAH uptake in CHO-mOat1 cells (cell accumulation assay)
Type: cell-based, murine
Settings: for Estimated α value from mixed inhibition model analysis, mOat1: 5 μM PAH for 2 min, mean, α > 1 indicates competitive inhibition; for Ki / inhibition at 1000 µM: 5 μM [3H]PAH; for Ki: 2 min, CHO-mOat1, mean ± S.E.M. (n = 3), from IC50 via Cheng-Prusoff, read-out: Estimated K i for mOat1-mediated transport; for inhibition at 1000 µM: 1 mM (1000 μM) inhibitor, 10 min, CHO-mOat1 cells, read-out: inhibition of mOat1-mediated PAH uptake; for mode of inhibition of mOat1-mediated transport: mixed inhibition model, PAH substrate; for K i ratio (mOat1/mOat3): ratio of Ki on mOat1 to Ki on mOat3
Protocol: Derivation of the stably transfected Chinese hamster ovary (CHO) cell lines expressing mOat1 (CHO-mOat1), mOat3 (CHO-mOat3), and the empty vector (FRT) transfected control cell line (CHO-FRT) was described previously.
Cell transport assay procedures were adapted from those previously published. In brief, 2 × 10^5 cells/well were seeded in 24-well tissue culture plates and grown in the absence of antibiotics for 48 hr. On the day of the experiment, cells were equilibrated with transport buffer for 10 min (500 μL of Hanks' balanced salt solution containing 10 mM HEPES, pH 7.4). […] After incubation, cells were immediately rinsed three times with ice-cold transport buffer, lysed, and analyzed via liquid scintillation counting. Uptake values were normalized to corresponding total protein content in cell lysates as determined by the Bradford method. Substrate accumulation is reported as picomoles of substrate per milligram protein. […] Kinetic calculations were performed using GraphPad Prism Software version 5.0 (GraphPad Software Inc., San Diego, CA, USA). Michaelis constant (K m) values were calculated by nonlinear regression using the Michaelis-Menten model. […] In this study, three curves were constructed (no inhibitor, plus two selected inhibitor concentrations) with uptake of substrate plotted as a function of its concentration for each condition. […] The parameter, α, can then be used to determine the mode of inhibition. When α is very large (α > 1), it indicates competitive inhibition. […] Results were confirmed by repeating all experiments at least three times with triplicate wells for each data point in every experiment.
Figure 3 Michaelis-Menten kinetics of PAH transport in CHO-mOat1 cells. In order to calculate K i values for mOat1, the K m value for PAH needed to be determined in the CHO-mOat1 cell system. […] The corrected curve (closed circles) was obtained by subtracting the nonspecific background uptake as measured in the CHO-FRT cells from CHO-mOat1 accumulation to allow analysis of mOat1-mediated activity. Experiments were repeated three times in triplicate, and Michaelis constant (K m) values were calculated by nonlinear regression using the Michaelis-Menten model. […] Graph shown is from a representative experiment with values plotted as mean ± S.D. (n = 3).
Figure 2 Inhibition profile of mOat1 and mOat3. […] (b) Inhibition of mOat3-mediated uptake of [^3H]ES (1 μM) by LSA, PCA, RMA, SAA, SAB, TSL, and probenecid (1000 μM) was measured in the CHO-mOat3 cells (10 min). […] Values are mean ± S.D. of triplicate values. ***denotes P < 0.001 as determined by one-way ANOVA followed by Dunnett's t-test.
Figure 4 K i determination for LSA, RMA, and SAA in the CHO-mOat1 cell line. […] (5 μM) in CHO-mOat1 cells was measured in the presence of increasing concentrations (10^−7 to 5 × 10^−4 M) of LSA, RMA, and SAA. Data were corrected for nonspecific background measured in the CHO-FRT cells prior to kinetic analysis. K i values were determined with non-linear regression and the “one-site competition” model using GraphPad Prism software. Graphs shown are from representative experiments with values plotted as mean ± S.D. (n = 3).

Row | SMILES | Estimated α value from mixed inhibition model analysis, mOat1 | Ki [µM] | inhibition at 1000 µM [%] | mode of inhibition of mOat1-mediated transport | K i ratio (mOat1/mOat3)
1 | O=C(/C=C/c1ccc(O)c2c1[C@H](C(=O)O)[C@@H](c1ccc(O)c(O)c1)O2)O[C@H](Cc1ccc(O)c(O)c1)C(=O)O [LSA, lithospermic acid] | 6.7 × 10^11 | 14.9 ± 4.9 | 70 to 85 | competitive | 0.48
2 | O=C(/C=C/c1ccc(O)c(O)c1)O[C@H](Cc1ccc(O)c(O)c1)C(=O)O [RMA, rosmarinic acid] | 1.3 × 10^12 | 5.5 ± 2.2 | > 95 | competitive | 1.29
3 | O=C(/C=C/c1ccc(O)c(O)c1/C=C/c1ccc(O)c(O)c1)O[C@H](Cc1ccc(O)c(O)c1)C(=O)O [SAA, salvianolic acid A] | 2.6 × 10^14 | 4.9 ± 2.2 | > 95 | competitive | 0.23
4 | O=C(O)C(O)Cc1ccc(O)c(O)c1 (stereo not shown) [TSL, tanshinol] |  |  | 70 to 85 |  | 
